Data published in ChEMBL document CHEMBL5550160, “Leveraging a rationally designed veliparib-based anilide eliciting anti-leukemic effects for the design of pH-responsive polymer nanoformulation” (Eur J Med Chem, 2024).
The source made the active and inactive calls. The rule behind the calls is not given here.

Tests used:
[1] = molecular target: Histone deacetylase 9 (Homo sapiens) (UniProt Q9UKV0); experiment: Inhibition of HDAC9 (unknown origin) assessed as residual activity at 1 x 10^-5M (reference value: 97.55%); conditions: dose 1.0 10^-5M
Chain of Histone deacetylase 9 (Homo sapiens) (Q9UKV0 whole entry, the tested form may be a part): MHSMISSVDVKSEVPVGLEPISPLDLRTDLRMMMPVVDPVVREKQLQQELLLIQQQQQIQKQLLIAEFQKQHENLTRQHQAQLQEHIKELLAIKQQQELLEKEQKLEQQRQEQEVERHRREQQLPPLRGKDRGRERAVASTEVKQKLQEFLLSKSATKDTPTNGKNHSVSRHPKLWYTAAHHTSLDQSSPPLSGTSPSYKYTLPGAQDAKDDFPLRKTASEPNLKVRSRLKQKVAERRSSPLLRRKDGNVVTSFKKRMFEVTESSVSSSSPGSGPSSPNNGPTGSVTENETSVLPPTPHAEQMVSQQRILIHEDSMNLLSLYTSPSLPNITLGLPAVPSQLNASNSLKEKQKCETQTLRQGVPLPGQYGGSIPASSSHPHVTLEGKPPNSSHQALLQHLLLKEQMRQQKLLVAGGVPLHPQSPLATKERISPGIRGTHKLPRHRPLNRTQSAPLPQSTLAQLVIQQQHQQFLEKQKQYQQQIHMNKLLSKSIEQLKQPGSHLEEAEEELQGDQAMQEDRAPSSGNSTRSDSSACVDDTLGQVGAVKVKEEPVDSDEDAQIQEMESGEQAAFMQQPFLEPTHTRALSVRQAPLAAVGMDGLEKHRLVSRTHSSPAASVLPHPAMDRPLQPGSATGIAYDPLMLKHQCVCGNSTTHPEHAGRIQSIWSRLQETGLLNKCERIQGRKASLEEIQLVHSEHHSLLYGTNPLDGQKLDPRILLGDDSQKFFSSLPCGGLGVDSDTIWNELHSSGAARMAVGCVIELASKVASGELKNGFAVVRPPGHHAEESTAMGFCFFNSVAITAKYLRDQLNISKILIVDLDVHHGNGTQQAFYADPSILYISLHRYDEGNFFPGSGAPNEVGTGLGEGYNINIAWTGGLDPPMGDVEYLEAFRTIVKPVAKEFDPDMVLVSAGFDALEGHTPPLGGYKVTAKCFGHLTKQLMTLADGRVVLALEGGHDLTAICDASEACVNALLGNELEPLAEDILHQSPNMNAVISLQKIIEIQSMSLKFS

[2] = molecular target: Histone deacetylase 3 (Homo sapiens, UniProt O15379); experiment: Inhibition of HDAC3 (unknown origin) using p53 residues 379 to 382 [RHKK(Ac)] as fluorogenic substrate assessed as residual activity at 4.12 x 10^-8M (reference value: 103.08%); conditions: dose 4.12 10^-8M
Chain of Histone deacetylase 3 (O15379 whole entry, the tested form may be a part): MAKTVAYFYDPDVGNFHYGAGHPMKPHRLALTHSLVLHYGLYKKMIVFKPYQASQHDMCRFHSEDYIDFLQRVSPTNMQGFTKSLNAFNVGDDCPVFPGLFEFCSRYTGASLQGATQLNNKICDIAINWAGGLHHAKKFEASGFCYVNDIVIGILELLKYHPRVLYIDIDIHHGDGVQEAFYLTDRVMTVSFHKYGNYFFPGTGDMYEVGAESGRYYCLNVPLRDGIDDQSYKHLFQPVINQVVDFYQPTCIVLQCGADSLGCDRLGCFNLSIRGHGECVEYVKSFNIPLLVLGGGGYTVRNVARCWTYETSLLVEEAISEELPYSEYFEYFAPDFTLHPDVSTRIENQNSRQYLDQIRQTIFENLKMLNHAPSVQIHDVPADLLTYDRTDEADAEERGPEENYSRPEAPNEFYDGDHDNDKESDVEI

[3] = molecular target: Histone deacetylase 4 (Homo sapiens) (UniProt P56524); experiment: Inhibition of HDAC4 (unknown origin) assessed as residual activity at 3.33 x 10^-6M (reference value: 98.90%); conditions: dose 3.33 10^-6M
Chain of Histone deacetylase 4 (Homo sapiens) (P56524 whole entry): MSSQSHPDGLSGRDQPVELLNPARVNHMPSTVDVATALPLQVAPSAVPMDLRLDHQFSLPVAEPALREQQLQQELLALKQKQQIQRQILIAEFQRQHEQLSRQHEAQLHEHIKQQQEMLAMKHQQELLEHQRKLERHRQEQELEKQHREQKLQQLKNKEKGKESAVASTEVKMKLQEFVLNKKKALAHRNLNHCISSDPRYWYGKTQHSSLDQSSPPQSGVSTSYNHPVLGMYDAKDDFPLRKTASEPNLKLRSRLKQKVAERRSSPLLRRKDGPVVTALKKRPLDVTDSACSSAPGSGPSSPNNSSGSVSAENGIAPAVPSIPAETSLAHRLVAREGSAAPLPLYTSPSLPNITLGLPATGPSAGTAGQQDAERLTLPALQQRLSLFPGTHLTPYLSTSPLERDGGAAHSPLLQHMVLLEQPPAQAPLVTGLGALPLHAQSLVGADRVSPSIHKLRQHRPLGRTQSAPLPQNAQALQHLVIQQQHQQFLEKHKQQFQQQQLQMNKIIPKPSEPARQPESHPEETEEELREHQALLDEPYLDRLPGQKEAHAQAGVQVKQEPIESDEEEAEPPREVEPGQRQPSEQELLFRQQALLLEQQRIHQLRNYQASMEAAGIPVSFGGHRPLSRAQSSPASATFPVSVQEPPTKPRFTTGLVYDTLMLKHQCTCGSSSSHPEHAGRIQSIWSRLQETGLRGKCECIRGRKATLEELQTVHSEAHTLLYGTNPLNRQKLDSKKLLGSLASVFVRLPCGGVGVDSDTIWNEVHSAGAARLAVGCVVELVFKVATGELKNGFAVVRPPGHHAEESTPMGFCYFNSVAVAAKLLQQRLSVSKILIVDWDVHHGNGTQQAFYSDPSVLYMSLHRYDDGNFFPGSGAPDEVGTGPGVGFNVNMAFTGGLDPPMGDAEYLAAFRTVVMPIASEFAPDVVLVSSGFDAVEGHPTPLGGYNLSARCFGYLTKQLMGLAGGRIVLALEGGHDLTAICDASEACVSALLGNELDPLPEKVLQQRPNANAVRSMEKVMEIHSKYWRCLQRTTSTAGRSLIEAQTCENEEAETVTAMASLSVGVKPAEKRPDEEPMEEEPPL

[4] = molecular target: Histone deacetylase 4 (Homo sapiens) (UniProt P56524); experiment: Inhibition of HDAC4 (unknown origin) assessed as residual activity at 1.1 x 10^-6M (reference value: 98.90%); conditions: dose 1.1 10^-6M
[5] = molecular target: Histone deacetylase 5 (Homo sapiens) (UniProt Q9UQL6); experiment: Inhibition of HDAC5 (unknown origin) assessed as residual activity at 3.33 x 10^-6M (reference value: 100%); conditions: dose 3.33 10^-6M
Chain of Histone deacetylase 5 (Homo sapiens) (Q9UQL6 whole entry, the tested form may be a part): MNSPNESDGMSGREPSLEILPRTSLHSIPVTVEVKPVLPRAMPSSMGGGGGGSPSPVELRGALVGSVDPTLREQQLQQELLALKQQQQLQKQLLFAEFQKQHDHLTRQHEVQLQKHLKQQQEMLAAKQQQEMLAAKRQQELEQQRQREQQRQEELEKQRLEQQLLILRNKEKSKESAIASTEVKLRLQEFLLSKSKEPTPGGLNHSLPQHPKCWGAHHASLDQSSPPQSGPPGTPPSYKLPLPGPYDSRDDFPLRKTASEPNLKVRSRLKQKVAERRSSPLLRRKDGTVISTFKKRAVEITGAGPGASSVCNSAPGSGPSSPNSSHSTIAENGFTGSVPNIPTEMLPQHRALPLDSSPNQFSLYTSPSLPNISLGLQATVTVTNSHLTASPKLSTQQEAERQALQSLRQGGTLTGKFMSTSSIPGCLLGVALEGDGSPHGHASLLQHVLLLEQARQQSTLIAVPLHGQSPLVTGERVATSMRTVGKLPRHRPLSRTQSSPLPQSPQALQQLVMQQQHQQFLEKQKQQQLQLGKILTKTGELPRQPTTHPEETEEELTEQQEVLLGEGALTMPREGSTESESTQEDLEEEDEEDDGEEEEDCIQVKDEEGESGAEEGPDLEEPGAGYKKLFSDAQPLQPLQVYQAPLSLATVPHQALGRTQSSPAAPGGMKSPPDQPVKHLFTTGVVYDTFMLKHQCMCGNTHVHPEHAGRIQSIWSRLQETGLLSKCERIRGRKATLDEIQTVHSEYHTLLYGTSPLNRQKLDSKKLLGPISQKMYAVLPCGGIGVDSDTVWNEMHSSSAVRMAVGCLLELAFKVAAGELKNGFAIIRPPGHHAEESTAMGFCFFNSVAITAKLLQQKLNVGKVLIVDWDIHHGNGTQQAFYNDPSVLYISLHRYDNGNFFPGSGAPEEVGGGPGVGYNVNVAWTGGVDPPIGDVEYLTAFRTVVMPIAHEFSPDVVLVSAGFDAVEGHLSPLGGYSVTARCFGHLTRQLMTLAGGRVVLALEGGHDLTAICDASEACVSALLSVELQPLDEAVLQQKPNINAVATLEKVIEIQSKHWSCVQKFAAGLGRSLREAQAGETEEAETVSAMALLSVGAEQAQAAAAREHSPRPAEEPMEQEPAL

[6] = molecular target: T1, Protein deacetylase HDAC6 (Homo sapiens) (UniProt Q9UBN7); experiment: Inhibition of HDAC6 (unknown origin) using p53 residues 379 to 382 [RHKK(Ac)] as fluorogenic substrate assessed as residual activity at 3.70 x 10^-7M (reference value: 101.06%); conditions: dose 3.7 10^-7M
T1 sequence (whole entry): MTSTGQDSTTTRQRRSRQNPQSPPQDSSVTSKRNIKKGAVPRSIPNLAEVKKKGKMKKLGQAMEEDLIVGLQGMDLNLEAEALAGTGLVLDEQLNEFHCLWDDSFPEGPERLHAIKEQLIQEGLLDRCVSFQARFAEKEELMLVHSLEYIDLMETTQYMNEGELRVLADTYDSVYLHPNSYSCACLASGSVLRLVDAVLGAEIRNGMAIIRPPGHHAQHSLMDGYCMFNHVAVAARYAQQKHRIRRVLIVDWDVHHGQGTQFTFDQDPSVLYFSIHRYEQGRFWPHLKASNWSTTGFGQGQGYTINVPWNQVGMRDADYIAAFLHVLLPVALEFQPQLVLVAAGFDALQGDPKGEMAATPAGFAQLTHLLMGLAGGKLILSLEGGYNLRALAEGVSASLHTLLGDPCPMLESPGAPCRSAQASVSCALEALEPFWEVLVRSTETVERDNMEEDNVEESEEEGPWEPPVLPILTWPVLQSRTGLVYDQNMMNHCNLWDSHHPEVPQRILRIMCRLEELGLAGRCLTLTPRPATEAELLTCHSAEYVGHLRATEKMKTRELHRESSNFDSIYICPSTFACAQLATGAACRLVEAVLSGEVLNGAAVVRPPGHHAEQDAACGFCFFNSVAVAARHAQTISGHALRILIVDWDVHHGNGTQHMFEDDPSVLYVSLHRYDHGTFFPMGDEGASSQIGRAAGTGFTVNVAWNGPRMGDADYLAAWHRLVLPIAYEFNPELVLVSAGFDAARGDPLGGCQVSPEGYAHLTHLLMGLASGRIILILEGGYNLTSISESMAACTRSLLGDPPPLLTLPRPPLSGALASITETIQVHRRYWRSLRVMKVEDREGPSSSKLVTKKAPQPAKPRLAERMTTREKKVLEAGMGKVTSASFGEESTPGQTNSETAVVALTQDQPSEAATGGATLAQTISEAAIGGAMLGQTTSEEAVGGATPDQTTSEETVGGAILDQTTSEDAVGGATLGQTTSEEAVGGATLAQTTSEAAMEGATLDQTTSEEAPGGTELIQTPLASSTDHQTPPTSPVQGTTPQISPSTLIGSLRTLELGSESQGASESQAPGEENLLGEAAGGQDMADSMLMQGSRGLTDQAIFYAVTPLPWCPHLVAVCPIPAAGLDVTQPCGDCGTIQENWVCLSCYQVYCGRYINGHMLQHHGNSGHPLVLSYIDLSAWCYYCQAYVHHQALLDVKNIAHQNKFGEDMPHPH

[7] = molecular target: T2, Histone deacetylase 8 (Homo sapiens) (UniProt Q9BY41); experiment: Inhibition of HDAC8 (unknown origin) assessed as residual activity at 4.12 x 10^-8M (reference value: 100%); conditions: dose 4.12 10^-8M
T2 sequence (whole entry): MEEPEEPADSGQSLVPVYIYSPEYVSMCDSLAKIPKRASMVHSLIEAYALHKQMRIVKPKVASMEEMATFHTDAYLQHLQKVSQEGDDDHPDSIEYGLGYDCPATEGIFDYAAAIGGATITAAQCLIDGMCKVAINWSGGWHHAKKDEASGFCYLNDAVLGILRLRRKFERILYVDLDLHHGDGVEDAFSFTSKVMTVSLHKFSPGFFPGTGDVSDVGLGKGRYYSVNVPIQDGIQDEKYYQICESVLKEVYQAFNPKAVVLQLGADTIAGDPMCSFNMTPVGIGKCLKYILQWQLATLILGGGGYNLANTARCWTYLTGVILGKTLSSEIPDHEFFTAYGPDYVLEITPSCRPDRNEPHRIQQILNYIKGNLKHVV

[8] = molecular target: Histone deacetylase 1 (Homo sapiens, UniProt Q13547); experiment: Inhibition of HDAC1 (unknown origin) using p53 residues 379 to 382 [RHKK(Ac)] as fluorogenic substrate
Chain of Histone deacetylase 1 (Q13547 whole entry, the tested form may be a part): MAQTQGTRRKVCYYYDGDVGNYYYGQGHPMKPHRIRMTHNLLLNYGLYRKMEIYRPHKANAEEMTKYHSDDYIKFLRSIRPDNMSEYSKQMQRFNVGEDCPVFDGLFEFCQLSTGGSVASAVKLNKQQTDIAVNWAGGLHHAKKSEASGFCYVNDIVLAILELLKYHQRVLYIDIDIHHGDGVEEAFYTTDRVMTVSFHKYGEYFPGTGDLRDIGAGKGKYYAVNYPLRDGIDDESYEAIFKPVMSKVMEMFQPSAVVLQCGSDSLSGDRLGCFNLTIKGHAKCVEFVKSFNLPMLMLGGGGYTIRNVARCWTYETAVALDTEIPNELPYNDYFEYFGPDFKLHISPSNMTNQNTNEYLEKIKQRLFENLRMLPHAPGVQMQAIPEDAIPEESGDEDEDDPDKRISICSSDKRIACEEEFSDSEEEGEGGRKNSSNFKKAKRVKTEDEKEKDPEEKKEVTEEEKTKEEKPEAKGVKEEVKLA

[9] = system: HL-60; experiment: Downregulation of HDAC3 protein expression in human HL-60 cells at 0.5 to 1 times IC50 by Western blot analysis; assay type: functional, cell-based
[10] = system: HL-60; experiment: Downregulation of HDAC1 protein expression in human HL-60 cells by Western blot analysis; assay type: functional, cell-based; conditions: dose 0.2-5 µM

## NC(=O)c1cccc2[nH]c(-c3ccc(NCc4ccc(C(=O)Nc5ccccc5N)cc4)cc3)nc12
[1]
  Activity: 100%
[2]
  Activity: 91.1%
[3]
  Activity: 94.3%
[4]
  Activity: 76.5%
[5]
  Activity: 85.7%
[6]
  Activity: 101%
[7]
  Activity: 107%
[8]
  IC50: 50 nM
[9]
  Activity: Active
[10]
  Activity: Dose-Dependent Effect
